Values of other authors as cited in US20200129499A1, “COMBINATION OF TASQUINIMOD OR A PHARMACEUTICALLY ACCEPTABLE SALT THEREOF AND A PD-1 AND/OR PD-L1 INHIBITOR, FOR USE AS A MEDICAMENT” (ACTIVE BIOTECH AB, priority 2015, published 2020).

Test system: metastatic bladder cancer
Conditions: phase 1a study, cited from earlier work

atezolizumab: anti-PD-L1 human IgG1 antibody (Roche)
people alive at 1 year (people with the highest levels of PD-L1 expression): 57%
Complete responses (CRs) (metastatic bladder cancer): 20%
